Consider one compound from US20230226218A1, “Red Cell Extracellular Vesicles (RCEVs) Containing Cargoes and Methods of Use and Production Thereof” (ERYTECH PHARMA, priority 2020, published 2023).

Holding throughout (type): cell-based, human
For one experiment, the system named is STING. Put plainly: THP1-Dual IRF-Lucia luciferase reporter assay (QUANTI-Luc). The conditions noted are these: 0.5, 1.0, 1.5, 2.0 μg/mL STINGa; 100k cells/well; 24 h. As for the experimental part:
First, indirect measurements were made using the THP1-Dual™ cells (InvivoGen), which are derived from the human THP-1 monocyte cell line and contain a stably integrated inducible IRF-Lucia luciferase reporter construct that expresses luciferase when STING is activated (e.g. by STING agonists including CDN).
Briefly, 100k cells/well were seeded and then treated with different concentrations of free STING agonist (“STINGa”) (0.5, 1.0, 1.5, and 2.0 μg/mL), EVs-STINGa (also referred to as “ERY-STINGa-CLRCEV” or “STINGa-CLRCEV” throughout) (0.5, 1.0, 1.5, and 2.0 μg/mL, carried by the indicated amounts of EVs), and EVs-proRBC. After 24 h, the supernatants were recovered and subjected to QUANTI-Luc™ detection according to the manufacturer's instructions. […] If so, it is envisioned that the in vivo efficacy of EV-STINGa (or any EV-[immune modulator] for that matter) will depend upon the capacity of target cells for taking up the CLRCEVs. It is further envisioned that if the THP1-Dual monocytes had been differentiated into macrophages, the highest dose of EVs-STINGa would have elicited at least as much luciferase activity as the highest dose of free STINGa.
A general note: Reporter assays use an easily measured gene product as a stand-in for the process of interest.

A further experiment has as its system THP1 macrophages. The experiment can be described thus: Cytokine release by THP1 macrophages (BioLegend bead kit, flow cytometry). As for the experimental part:
In a second approach, the levels of IL-1b, IL-6, TNF-α, and IFN-β were measured after THP1 macrophages were incubated with varying concentrations of STINGa, STINGa-CLRCEVs, or proRBC EVs.
[…] Supernatants were collected at 6 h and 24 h after stimulation and frozen until quantification. Supernatants were analyzed by flow cytometry using the BioLegend kit with four (4) different beads recognizing IL-1b, IL-6, TNF-α, IFN-β.
It has been reported that vesicles from packed red blood cell (pRBC) units bind to monocytes and induce proinflammatory cytokines, boosting T-cell responses in vitro (Danesh et al 2013). To test whether CLRCEVs and/or RCEVs would likewise induce these cytokines, THP1 macrophages were grown and treated as before and the levels of IL-6, IL-1b, and TNF-α were measured.
Background: Flow cytometry measures light scatter and fluorescence of single cells or particles in a stream.

The next experiment relates to THP1-derived macrophages. Put plainly: pHrodo in vitro phagocytosis assay, THP1-derived macrophages. The conditions noted are these: 25k EVs/cell, STINGa 0.14 μg/ml, 48 h, FIG. 18-19. An excerpt: To test the ability of the RCEVs and CLRCEVs to be taken up by immune cells, we developed an in vitro phagocytosis protocol based upon the THP1 monocyte cell line. Briefly, we determined THP1 cells could be effectively differentiated to become more macrophage-like by treating them with PMA for 3 days followed by 4 days of resting in culture media without PMA. Thereafter, we applied various test substances (e.g. EVs-STINGa, EVs-proRBC, free STINGa, each+/=a reporter dye) to either the undifferentiated or differentiated THP1 cells and observed the phagocytosis activity.
As shown schematically in FIG. 12, pHrodo®-labeled cells or vesicles (e.g. EVs) are added to phagocytic cells, but while they are outside of the cells, there is little to no fluorescence at the approximately pH 7.4 extracellular environment. When the relevant cellular receptors are engaged, a phagocytic cup forms around the labeled cells or vesicles. Finally, an acidic phagosome forms, causing the pHrodo® to emit fluorescence.
As an initial study, the THP1 cells were seeded as follows: 24,000, 34,000, and 44,000 cells/well. […] Labeled EVs-STINGa were added to differentiated THP1 cells and incubated for 12 h and the […] device was set to read the wells every 30 minutes. […] In these greyscale micrograms, the original red fluorescence appears black inside the cells. […]

For `Nc1ncnc2c1ncn2[C@@H]1O[C@@H]2COP(=O)([S-])O[C@@H]3[C@H](O)[C@@H](COP([O-])(=S)O[C@H]2[C@H]1O)O[C@H]3n1cnc2c(N)ncnc21.[Na+].[Na+]` (stereo partly drawn) [free STINGa, ADU-S100], the “luciferase activity (IRF pathway activation)” value in the experiment on STING is recorded as “a clear dose response effect was observed”. In addition, the IFN-β with THP1 macrophages (3 μg/ml STINGa (EVs 7.6E10 EVs/mL), time not stated) was determined as 140 pg/mL; with THP1 macrophages (8 μg/mL STINGa (EVs 2.0E11 EVs/mL), 6 h) it was 400 pg/mL; in the experiment with THP1 macrophages (8 μg/mL STINGa (EVs 2.0E11 EVs/mL), 24 h), 318 pg/mL. The IL-6 with THP1 macrophages (2.5E+10 EVs/mL, STINGa 1 μg/ml) stood at 25 pg/mL; with THP1 macrophages (5.0E10 EVs/mL, STINGa 2 μg/ml) it was 38 pg/mL; in the experiment on THP1 macrophages (24 h, 2.0E11 EVs/mL, STINGa 8 μg/ml), 453 pg/mL. For the same compound, the “IL-1b release” value with THP1 macrophages (8, 2 or 1 μg/mL, 6 h and 24 h) was “did not induce the release of IL-1b”. In addition, the “red fluorescence (uptake)” value in the experiment with THP1-derived macrophages is “neither free STINGa+pHrodo nor pHrodo alone produced appreciable fluorescence”.
